In patent US11046854B2, “Slippery liquid-infused porous surfaces that prevent microbial surface fouling” (Wisconsin Alumni Research Foundation, priority 2016, dated 2021):

Legend:
Type in all cases: physicochemical
[1] = Release of QSIs and DMABI from SLIPS in PBS at 37° C. (UV/vis)
Method: Small Molecule Loading, Oil Infusion, and Characterization of Release. […] Immediately prior to use, loaded films were infused with silicone oil (for melting point and boiling point apparatuses; Sigma-Aldrich) by placing a 2.25 μL droplet of oil on each side and allowing the oil to spread over the entire surface. Excess oil was removed from the surface using tissue paper. […] At designated time points, substrates were removed from the incubation buffer and placed in fresh buffer before returning to the incubator. The release of the loaded agents into the incubation buffer was characterized using a UV/vis spectrophotometer.
Characterization of the release of QSIs and biofilm inhibitors from SLIPS.

[2] = Water droplet sliding velocity on compound-loaded SLIPS; settings: 10 μL water droplets, SLIPS loaded with the compound, tilt angle 10°; mean and standard error of six replicates
Text: All QSI-loaded SLIPS used in this study contained 240 nmol of compound per substrate and all DMABI-loaded SLIPS contained 300 nmol of compound.

[3] = Solubility of triclosan in silicone oil

| loaded compound released ([1]; after the first 24 hours) | additional compound released ([1]; over the next 150 hours) | Slide Velocity [2] | solubility in silicone oil [3] | Compound |
| --- | --- | --- | --- | --- |
| approximately 40% | approximately 40% | 7.4 ± 0.2 mm/s |  | Cc1cc2nc(N)[nH]c2cc1C [DMABI, Dimethyl-2-aminobenzamidazole] |
|  |  |  | soluble in silicone oil | Oc1cc(Cl)ccc1Oc1ccc(Cl)cc1Cl [Triclosan, 5-chloro-2-(2,4-dichlorophenoxy)phenol] |
